{"source": "paper PMC10897926", "about": "(Journal of Natural Products, 2024)", "key": {"P. vivax liver schizonts": {"system": "P. vivax liver schizonts", "assay": "microbe, parasite or virus in culture", "format": "cell-based, Plasmodium vivax"}, "P. vivax hypnozoites": {"system": "P. vivax hypnozoites", "assay": "microbe, parasite or virus in culture", "format": "cell-based, Plasmodium vivax"}, "[1]": {"system": "primary human hepatocytes"}, "[2]": {"system": "P. falciparum (strain W2) asexual blood stage parasites", "assay": "microbe, parasite or virus in culture", "format": "cell-based, Plasmodium falciparum"}, "in vitro [3]": {"assay": "in vitro", "settings": "human"}, "in vitro [4]": {"assay": "in vitro", "settings": "human", "remark": "listed apart in the source"}, "[5]": {"settings": "Plasmodium vivax, Hepatocyte, 288 h, read-out: P. vivax schizont EC50"}, "[6]": {"settings": "Plasmodium vivax, read-out: P. vivax schizont pEC50 (converted)"}, "[7]": {"settings": "Plasmodium vivax, Hepatocyte, 288 h, read-out: P. vivax hypnozoite EC50"}, "[8]": {"settings": "Plasmodium vivax, read-out: P. vivax hypnozoite pEC50 (converted)"}}, "note": "Like-named read-outs stand apart in the source and are kept apart here.", "data": [{"compound": "CC(=O)OC[C@]12CCC(C)=C[C@H]1O[C@@H]1[C@H](O)[C@@H](OC(C)=O)[C@@]2(C)[C@]12CO2", "note": "[anguidine, diacetoxyscirpenol]", "values": [{"measurement": "EC50", "setting": "P. vivax liver schizonts; read-out: P. vivax schizont EC50", "value": 13.5, "unit": "nM"}, {"measurement": "P. vivax hypnozoite pEC50", "setting": "P. vivax hypnozoites", "value": "36.3 (7.44 ± 0.75)"}, {"measurement": "EC50", "setting": "P. vivax hypnozoites; read-out: P. vivax hypnozoite EC50", "value": 36.3, "unit": "nM"}, {"measurement": "HepG2 Tox pCC50", "setting": "HepG2 cells", "value": "27.5 (7.56 ± 0.08)"}, {"measurement": "cytotoxicity (in words)", "setting": "HepG2 cells", "value": "cytotoxic"}, {"measurement": "CC50", "setting": "HepG2 cells; read-out: HepG2 Tox CC50", "value": 27.5, "unit": "nM"}, {"measurement": "PHH Tox pCC50", "setting": "[1]", "value": "380 (6.42 ± 0.31)"}, {"measurement": "CC50", "setting": "[1]; read-out: PHH Tox CC50", "value": 380, "unit": "nM"}, {"measurement": "EC50", "setting": "[2]; read-out: P. falciparum ABS (W2) EC50", "value": 6.16, "unit": "nM"}]}, {"compound": "C[C@H]1[C@@H](O)O[C@@H]2O[C@@]3(C)CC[C@H]4[C@H](C)CC[C@@H]1[C@@]24OO3", "note": "[dihydroartemisinin]", "values": [{"measurement": "EC50", "setting": "[2]; Plasmodium falciparum, W2, 72 h, read-out: P. falciparum ABS (W2) EC50", "value": 1.44, "unit": "nM"}, {"measurement": "EC50", "setting": "[2]; Plasmodium falciparum, W2, 72 h, read-out: P. falciparum ABS (W2) pEC50 (converted)", "value": 1.45, "unit": "nM"}]}, {"compound": "CO[C@@H]1C[C@@H](C[C@H]2CC[C@H](C)[C@H]([C@@H](C)C(=O)O)O2)O[C@]2(O[C@](C)([C@H]3CC[C@@](C)([C@@H]4O[C@@H]([C@H]5O[C@@](O)(CO)[C@H](C)C[C@@H]5C)C[C@@H]4C)O3)C[C@H]2C)[C@@H]1C", "note": "[nigericin]", "values": [{"measurement": "EC50", "setting": "P. vivax liver schizonts; [5]", "value": 5.13, "unit": "nM"}, {"measurement": "EC50", "setting": "P. vivax liver schizonts; [6]", "value": 5.13, "unit": "nM"}, {"measurement": "CC50", "setting": "in vitro [3]; PHH Tox CC50", "value": "> 200", "unit": "nM"}, {"measurement": "EC50", "setting": "P. vivax hypnozoites; [7]", "value": 12.3, "unit": "nM"}, {"measurement": "EC50", "setting": "P. vivax hypnozoites; [8]", "value": 12.3, "unit": "nM"}, {"measurement": "PHH Tox pCC50", "setting": "[1]; human", "value": ">200 (6.70 ± 0.00)"}]}, {"compound": "COc1ccc(C[C@H](N)C(=O)N[C@H]2[C@@H](O)[C@H](n3cnc4c(N(C)C)ncnc43)O[C@@H]2CO)cc1", "note": "[puromycin]", "values": [{"measurement": "EC50", "setting": "P. vivax liver schizonts; [5]", "value": 2290, "unit": "nM"}, {"measurement": "EC50", "setting": "P. vivax liver schizonts; [6]", "value": 2290, "unit": "nM"}, {"measurement": "CC50", "setting": "in vitro [3]; PHH Tox CC50", "value": 1740, "unit": "nM"}, {"measurement": "CC50", "setting": "in vitro [3]; PHH Tox pCC50", "value": 1740, "unit": "nM"}, {"measurement": "EC50", "setting": "P. vivax hypnozoites; [7]", "value": 776, "unit": "nM"}, {"measurement": "EC50", "setting": "P. vivax hypnozoites; [8]", "value": 776, "unit": "nM"}, {"measurement": "CC50", "setting": "in vitro [4]; HepG2 Tox CC50", "value": 398, "unit": "nM"}, {"measurement": "CC50", "setting": "in vitro [4]; HepG2 Tox pCC50", "value": 398, "unit": "nM"}]}]}
